Experimental findings from US12655142B2 (Merck Patent GmbH, priority 2019, dated 2026) are described below.

Test [1] has as its target T1, c-Kit(V654A) (Homo sapiens, UniProt P10721, V654A).
T1 construct: recombinant human c-Kit, amino acids 544-end containing the V654A mutation; GST (N)
As to the kind of experiment: c-Kit(V654A) assay (33P-ATP filter binding kinase assay). Format: biochemical. The following applies: recombinant human c-Kit aa 544-end V654A, ATP 200 μM. The method, then:
c-Kit(V654A) (N-terminal GST-tagged, recombinant human c-Kit, amino acids 544-end containing the V654A mutation) is incubated with 8 mM MOPS pH 7.0, 0.2 mM EDTA, 250 μM GGMEDIYEFMGGKKK, 10 mM MgAcetate and [gamma-33P-ATP] (specific activity approx. 500 cpm/pmol, concentration 200 μM). The reaction is initiated by the addition of the MgATP mix. After incubation for 40 minutes at room temperature, the reaction is stopped by the addition of 3% phosphoric acid solution. 10 μL of the reaction is then spotted onto a P30 filtermat and washed three times for 5 minutes in 75 mM phosphoric acid and once in methanol prior to drying and scintillation counting.

In test [2] the target is T2, GIST430/654 cell line expressing mutated constitutively active cKIT receptor tyrosine kinase (Δ560-576 deletion and V654A point mutation) (Homo sapiens, UniProt P10721, DEL560-576/V654A).
T2 construct: endogenous in cells; host or cells: GIST430/654 cells
As to the kind of experiment: Cellular cKIT autophosphorylation (phospho-Y307-cKIT, Luminex bead assay) in GIST430/654 cells. Format: cell-based. The following applies: compounds 45 min, read-out: GIST 430/654 IC50. The method, then: Assay Principle for Cellular Testing of cKIT Mutant Inhibitors
The GIST430 cell line expressing constitutive active cKIT receptor tyrosine kinase (Δ560-576 deletion) and the Imatinib resistant GIST430/654 cell line expressing mutated constitutively active cKIT receptor tyrosine kinase (Δ560-576 deletion and V654A point mutation) were employed for assessing cellular potency of compounds. Cellular activity of mutant cKIT was determined by the degree of cKIT autophosphorylation at tyrosine 307 using a Luminex-based bead assay. GIST430 cells were plated with 22,000 cells per well of a 96-well plate in 100 μl medium (85% IMDM/15% FCS) and GIST430/654 cells were plated with 25,000 cells per well of a 96-well plate in 100 μl medium (85% IMDM/15% FCS supplemented with 100 nM Imatinib). At the following day compounds were added in a serial dilution for 45 min. Then, cells were lysed with 90 μl lysis buffer (20 mM Hepes pH 7.5, 200 mM NaCl, 1.5 mM MgCl2×6H2O, 0.4 mM EDTA, 1% Triton-X-100, 1% Phosphatase-Inhibitor II, 20 mM β-Glycerolphosphat, 0.1% Protease-Inhibitor Cocktail III, 0.01% Benzonase) and lysates were cleared by centrifugation through a 96-well filter plate (0.65 μm). Samples were incubated with Luminex-beads which were coupled with an anti-total cKIT antibody overnight at 4° C. under gentle agitation. For detection of phospho-Y307-cKIT a phosphospecific antibody and a species-specific PE-labeled secondary antibody were added. The amount of phospho-Y307-cKIT was determined in a Luminex 200 instrument measuring 100 events per well within 60 seconds.
Counts from samples treated with compounds were calculated as percent of control from solvent treated (0.3% DMSO) samples. Dose-response curves were fitted and IC50 values were determined using Genedata Screener software.

T2 sequence (P10721 with tags, fused parts or gaps DEL560-576/V654A): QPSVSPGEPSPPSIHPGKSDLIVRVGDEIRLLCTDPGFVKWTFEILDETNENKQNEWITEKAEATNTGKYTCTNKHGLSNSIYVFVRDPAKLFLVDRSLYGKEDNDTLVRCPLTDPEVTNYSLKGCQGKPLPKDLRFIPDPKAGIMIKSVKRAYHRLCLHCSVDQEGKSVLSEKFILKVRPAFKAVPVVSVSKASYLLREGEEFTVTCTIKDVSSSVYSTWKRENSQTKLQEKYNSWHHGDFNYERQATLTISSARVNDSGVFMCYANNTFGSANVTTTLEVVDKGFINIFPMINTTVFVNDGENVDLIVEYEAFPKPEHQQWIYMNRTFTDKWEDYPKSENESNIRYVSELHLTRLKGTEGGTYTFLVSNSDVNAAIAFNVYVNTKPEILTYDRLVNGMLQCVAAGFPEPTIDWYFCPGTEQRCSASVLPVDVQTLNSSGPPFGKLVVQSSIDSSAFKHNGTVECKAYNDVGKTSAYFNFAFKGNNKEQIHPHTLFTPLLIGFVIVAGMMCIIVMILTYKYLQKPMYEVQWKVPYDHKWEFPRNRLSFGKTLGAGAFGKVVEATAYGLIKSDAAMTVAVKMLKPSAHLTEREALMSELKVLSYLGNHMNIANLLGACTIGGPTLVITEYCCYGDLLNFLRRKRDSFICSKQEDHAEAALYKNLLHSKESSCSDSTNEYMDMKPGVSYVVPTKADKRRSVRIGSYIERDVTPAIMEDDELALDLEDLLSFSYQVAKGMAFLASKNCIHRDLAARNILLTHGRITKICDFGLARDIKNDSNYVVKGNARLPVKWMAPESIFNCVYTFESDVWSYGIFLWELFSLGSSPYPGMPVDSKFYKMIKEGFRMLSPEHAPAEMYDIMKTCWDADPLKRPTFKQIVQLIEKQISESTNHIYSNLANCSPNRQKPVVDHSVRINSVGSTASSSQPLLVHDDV
T1 sequence (P10721 544-976 V654A): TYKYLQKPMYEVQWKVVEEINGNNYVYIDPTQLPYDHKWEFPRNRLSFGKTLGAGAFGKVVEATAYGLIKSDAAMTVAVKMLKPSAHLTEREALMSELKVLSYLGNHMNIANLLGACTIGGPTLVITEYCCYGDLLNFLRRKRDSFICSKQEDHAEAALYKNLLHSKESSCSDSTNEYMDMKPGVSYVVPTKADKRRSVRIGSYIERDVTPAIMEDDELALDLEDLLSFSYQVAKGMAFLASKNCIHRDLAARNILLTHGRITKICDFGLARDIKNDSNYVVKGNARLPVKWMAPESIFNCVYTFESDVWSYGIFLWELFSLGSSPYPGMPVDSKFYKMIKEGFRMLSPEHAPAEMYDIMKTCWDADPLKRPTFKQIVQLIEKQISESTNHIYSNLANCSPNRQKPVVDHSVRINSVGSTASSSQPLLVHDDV

With `COc1ccn2c(-c3cc(NCc4ccc(-c5cnc(CO)n5C)cc4)ncn3)cnc2c1` [A174, [5-(4-{[6-(7-Methoxy-imidazo[1,2-a]pyridin-3-yl)-pyrimidin-4-ylamino]-methyl}-phenyl)-1-methyl-1H-imidazol-2-yl]-methanol], the IC50 in test [1] was found to be 260 nM. Turning to `Cn1cc(-c2ccc(CNc3cc(-c4cnc5cc(OC6CCN(C7COC7)CC6)ccn45)ncn3)cc2)cn1` [A182, N-{[4-(1-methyl-1H-pyrazol-4-yl)phenyl]methyl}-6-(7-{[1-(oxetan-3-yl)piperidin-4-yl]oxy}imidazo[1,2-a]pyridin-3-yl)pyrimidin-4-amine], the IC50 stood at 92 nM in test [2] and 11 nM in test [1]. Taken in the same sequence, the figures for `Cn1cc(-c2ccc(CNc3cc(-c4cnc5cc(OCC6CCN(CC#N)CC6)ccn45)ncn3)cc2)cn1` [A188, [4-(3-{6-[4-(1methyl-1H-pyrazol-4-yl)-benzylamino]-pyrimidin-4-yl}-imidazo[1,2-a]pyridin-7-yloxymethyl)-piperidin-1-yl]-acetonitrile] were 190 nM and 9.5 nM. On to `Cn1cc(-c2ccc(CNc3cc(-c4cnc5cc(OCC6CN(CC(F)(F)F)C6)ccn45)ncn3)cc2)cn1` [A254, N-{[4-(1-methyl-1H-pyrazol-4-yl)phenyl]methyl}-6-(7-{[1-(2,2,2-trifluoroethyl)azetidin-3-yl]methoxy}imidazo[1,2-a]pyridin-3-yl)pyrimidin-4-amine], for which the IC50 in test [1] worked out at 24 nM. With `Cn1cc(-c2ccc(CNc3cc(-c4cnc5cc(OCCCN6CC(F)(F)C6)ccn45)ncn3)cc2)cn1` [A142, 6-{7-[3-(3,3-difluoroazetidin-1-yl)propoxy]imidazo[1,2-a]pyridin-3-yl}-N-{[4-(1-methyl-1H-pyrazol-4-yl)phenyl]methyl}pyrimidin-4-amine], the results for the IC50 in test [2] and in test [1] were 65 nM and 7.3 nM, respectively. On the same counts, the results for `Cn1ncc(-c2ccc(CNc3cc(-c4cnc5cc(OCCN6CCC(F)(F)C6)ccn45)ncn3)cc2)n1` [A105, (6-{7-[2-(3,3-difluoro-pyrrolidin-1-yl)-ethoxy]-imidazo[1,2-a]pyridin-3-yl}-pyrimidin-4-yl)-[4-(2-methyl-2H-[1,2,3]triazol-4-yl)-benzyl]-amine] are 120 nM and 9.5 nM. On the same counts, the results for `COc1ccn2c(-c3cc(NCc4ccc(-c5cn(C)nc5C)cc4)ncn3)cnc2c1` [A25, [4-(1,3-dimethyl-1H-pyrazol-4-yl)-benzyl]-[6-(7-methoxy-imidazo[1,2-a]pyridin-3-yl)-pyrimidin-4-yl]-amine] are 210 nM and 26 nM. As for `COc1ccn2c(-c3cc(NCc4ccc(-c5cnc(C)o5)cc4)ncn3)cnc2c1` [A48, [6-(7-methoxy-imidazo[1,2-a]pyridin-3-yl)-pyrimidin-4-yl]-[4-(2-methyl-oxazol-5-yl)-benzyl]-amine], the results for the IC50 in test [2] and in test [1] were 470 nM and 25 nM, respectively. Turning to `Cn1ncc(-c2ccc(CNc3cc(-c4cnc5cc(N6CCN(C7COC7)CC6)ccn45)ncn3)cc2)n1` [A244, [4-(2-methyl-2H-[1,2,3]triazol-4-yl)-benzyl]-{6-[7-(4-oxetan-3-yl-piperazin-1-yl)-imidazo[1,2-a]pyridin-3-yl]-pyrimidin-4-yl}-amine], the IC50 in test [1] stood at 21 nM. As to `COc1ccn2c(-c3cc(NCc4ccc(-c5cnn(CC6CNC6)c5)cc4)ncn3)cnc2c1` [A159, N-[(4-{1-[(azetidin-3-yl)methyl]-1H-pyrazol-4-yl}phenyl)methyl]-6-{7-methoxyimidazo[1,2-a]pyridin-3-yl}pyrimidin-4-amine], in test [1], the IC50 stood at 88 nM.

Consider `COc1ccn2c(-c3cc(NCc4ccc(-c5cnn(CCN6CCCC6)c5)cc4)ncn3)cnc2c1` [A24, [6-(7-methoxy-imidazo[1,2-a]pyridin-3-yl)-pyrimidin-4-yl]-{4-[1-(2-pyrrolidin-1-yl-ethyl)-1H-pyrazol-4-yl]-benzyl}-amine], for which the IC50 in test [1] stood at 160 nM. On the same count and under the same terms, as for `CN1CC(F)(COc2ccn3c(-c4cc(NCc5ccc(-c6cnn(C)c6)cc5)ncn4)cnc3c2)C1` [A256, 6-{7-[(3-fluoro-1-methylazetidin-3-yl)methoxy]imidazo[1,2-a]pyridin-3-yl}-N-{[4-(1-methyl-1H-pyrazol-4-yl)phenyl]methyl}pyrimidin-4-amine], the figure is 12 nM; as for `Cn1cc(-c2ccc(CNc3cc(-c4cnc5cc(OCc6nccn6C)ccn45)ncn3)cc2)nn1` [A110, {6-[7-(1-methyl-1H-imidazol-2-ylmethoxy)-imidazo[1,2-a]pyridin-3-yl]-pyrimidin-4-yl}-[4-(1-methyl-1H-[1,2,3]triazol-4-yl)-benzyl]-amine], 110 nM; as for `COc1ccn2c(-c3cc(NCc4ccc(-c5cnn(C)n5)nc4)ncn3)cnc2c1` [A45, [6-(7-methoxy-imidazo[1,2-a]pyridin-3-yl)-pyrimidin-4-yl]-[6-(2-methyl-2H-[1,2,3]triazol-4-yl)-pyridin-3-ylmethyl]-amine], 130 nM.

For the compound `Cn1cc(-c2ccc(CNc3cc(-c4cnc5cc(OCCCN6CC(F)C6)ccn45)ncn3)cc2)cn1` [A240, (6-{7-[3-(3-fluoro-azetidin-1-yl)-propoxy]-imidazo[1,2-a]pyridin-3-yl}-pyrimidin-4-yl)-[4-(1-methyl-1H-pyrazol-4-yl)-benzyl]-amine], the IC50 in test [1] was determined as 7.3 nM.

On to `COc1ccn2c(-c3cc(OC(C)c4ccc(-c5cnn(C)c5)cc4)ncn3)cnc2c1` (centres unmarked) [A171, 7-methoxy-3-(6-{1-[4-(1-methyl-1H-pyrazol-4-yl)-phenyl]-ethoxy}-pyrimidin-4-yl)-imidazo[1,2-a]pyridine], for which, in test [1], the IC50 is 58 nM. On the same count and under the same terms, as for `Cn1cc(-c2ccc(CNc3cc(-c4cnc5cc(OCCCN6CC[S+]([O-])CC6)ccn45)ncn3)cc2)cn1` [A241, [4-(1-methyl-1H-pyrazol-4-yl)-benzyl]-(6-{7-[3-(1-oxo-1|4-thiomorpholin-4-yl)-propoxy]-imidazo[1,2-a]pyridin-3-yl}-pyrimidin-4-yl)-amine], the figure is 6.5 nM.

Regarding `COCC(COC)Oc1ccn2c(-c3cc(NCc4ccc(-c5cnn(C)c5)cc4)ncn3)cnc2c1` [A54, {6-[7-(2-methoxy-1-methoxymethyl-ethoxy)-imidazo[1,2-a]pyridin-3-yl]-pyrimidin-4-yl}-[4-(1-methyl-1H-pyrazol-4-yl)-benzyl]-amine], in test [1], the IC50 came to 120 nM. Same read-out and setting: the same measure for `Cn1ncc(-c2ccc(CNc3cc(-c4cnc5cc(OCCCN6CCN(C7CC7)CC6)ccn45)ncn3)cc2)n1` [A253, (6-{7-[3-(4-cyclopropyl-piperazin-1-yl)-propoxy]-imidazo[1,2-a]pyridin-3-yl}-pyrimidin-4-yl)-[4-(2-methyl-2H-[1,2,3]triazol-4-yl)-benzyl]-amine]: 6.5 nM. `COc1ccn2c(-c3cc(NCc4ccc(-c5cnc(C)nc5N)cc4)ncn3)cnc2c1` [A43, 5-(4-{[(6-{7-methoxyimidazo[1,2-a]pyridin-3-yl}pyrimidin-4-yl)amino]methyl}phenyl)-2-methylpyrimidin-4-amine]: the IC50 in test [1] was determined as 260 nM. In the case of `Cn1cc(-c2ccc(CNc3cc(-c4cnc5cc(OCCN6CCC67COC7)ccn45)ncn3)cc2)cn1` [A207, [4-(1-methyl-1H-pyrazol-4-yl)-benzyl]-(6-{7-[2-(6-oxa-1-aza-spiro[3.3]hept-1-yl)-ethoxy]-imidazo[1,2-a]pyridin-3-yl}-pyrimidin-4-yl)-amine], the IC50 in test [1] came out at 8.7 nM. Still for that read-out and setting: as for `COc1ccn2c(-c3cc(NCc4ccc(-n5cnc6ccccc65)cc4)ncn3)cnc2c1` [A27, N-{[4-(1H-1,3-benzodiazol-1-yl)phenyl]methyl}-6-{7-methoxyimidazo[1,2-a]pyridin-3-yl}pyrimidin-4-amine], the figure is 63 nM; as for `COc1ccn2c(-c3cc(NCc4ccc(-c5cnn(CCN6CCOCC6)c5)cc4)ncn3)cnc2c1` [A22, [6-(7-methoxy-imidazo[1,2-a]pyridin-3-yl)-pyrimidin-4-yl]-{4-[1-(2-morpholin-4-yl-ethyl)-1H-pyrazol-4-yl]-benzyl}-amine], 110 nM.
